# Data published in the supplement of paper PMC10307832.
# Legend:
# Test in all cases: relative viability (nuclei count vs DMSO), 5 days (fraction); higher = more cells survive
# Decitabine + Palbociclib = compound: Nc1ncn([C@H]2C[C@H](O)[C@@H](CO)O2)c(=O)n1 [Decitabine] + CC(=O)c1c(C)c2cnc(Nc3ccc(N4CCNCC4)cn3)nc2n(C2CCCC2)c1=O [Palbociclib] (partner 0.5 µM)
# In short: (§1)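 Lung cancer cell lines in 1536-well plates were dosed by pin tool the day after seeding, either with one drug alone or with a fixed anchor-drug dose plus five library-drug doses (not always all listed) in √10 steps. After 5 days, cells were fixed and their nuclei stained in one step (final 0.05% Triton X-100, 1% formaldehyde, 1 ug/ml Hoechst), then counted on 4× images. Relative viability is the nuclei count in treated wells divided by that in vehicle wells. Values are medians of duplicate plates.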
# Cediranib + Phenformin = compound: COc1cc2c(Oc3ccc4[nH]c(C)cc4c3F)ncnc2cc1OCCCN1CCCC1 [Cediranib] + N=C(N)NC(=N)NCCc1ccccc1 [Phenformin] (partner 250 µM)
# In short: as §1
# Halofuginone + OSI-027 = compound: O=C(C[C@H]1NCCC[C@@H]1O)Cn1cnc2cc(Br)c(Cl)cc2c1=O (racemic) [Halofuginone] + COc1cccc2cc(-c3nc([C@H]4CC[C@H](C(=O)O)CC4)n4ncnc(N)c34)[nH]c12 [OSI-027] (partner 0.5 µM)
# In short: as §1
# Decitabine + Crizotinib = compound: Nc1ncn([C@H]2C[C@H](O)[C@@H](CO)O2)c(=O)n1 [Decitabine] + C[C@@H](Oc1cc(-c2cnn(C3CCNCC3)c2)cnc1N)c1c(Cl)ccc(F)c1Cl [Crizotinib] (partner 1 µM)
# In short: as §1
Cell Line,relative viability (Decitabine + Palbociclib; first compound 0.04 µM),relative viability (Decitabine + Palbociclib; first compound 0.1265 µM),relative viability (Decitabine + Palbociclib; first compound 0.4 µM),relative viability (Decitabine + Palbociclib; first compound 1.265 µM),relative viability (Decitabine + Palbociclib; first compound 4 µM),relative viability (Cediranib + Phenformin; first compound 0.04 µM),relative viability (Cediranib + Phenformin; first compound 0.1265 µM),relative viability (Cediranib + Phenformin; first compound 0.4 µM),relative viability (Cediranib + Phenformin; first compound 1.265 µM),relative viability (Cediranib + Phenformin; first compound 4 µM),relative viability (Halofuginone + OSI-027; first compound 0.001 µM),relative viability (Halofuginone + OSI-027; first compound 0.003162 µM),relative viability (Halofuginone + OSI-027; first compound 0.01 µM),relative viability (Halofuginone + OSI-027; first compound 0.03162 µM),relative viability (Halofuginone + OSI-027; first compound 0.1 µM),relative viability (Decitabine + Crizotinib; first compound 0.04 µM),relative viability (Decitabine + Crizotinib; first compound 0.1265 µM),relative viability (Decitabine + Crizotinib; first compound 0.4 µM),relative viability (Decitabine + Crizotinib; first compound 1.265 µM),relative viability (Decitabine + Crizotinib; first compound 4 µM)
LXF-289,0.539,0.418,0.346,0.27,0.238,0.565,0.404,0.487,0.49,0.549,0.762,0.885,0.819,0.785,0.542,0.579,0.557,0.432,0.341,0.308
NCI-H23,0.413,0.372,0.295,0.28,0.271,0.756,,0.724,0.683,0.867,0.755,0.554,0.545,0.441,0.344,0.338,0.373,0.21,0.175,0.163
NCI-H322M,0.439,0.485,0.554,0.479,0.463,0.879,0.862,0.728,0.849,0.8,0.596,0.652,0.488,0.49,0.346,0.724,0.661,0.673,0.36,0.363
NCI-H358,0.179,0.118,0.114,0.13,0.135,0.336,0.41,0.299,0.222,0.358,0.972,0.836,0.664,0.267,0.107,0.385,0.39,0.246,0.192,0.161
NCI-H441,0.214,0.198,0.183,0.138,0.205,0.658,,0.802,0.763,0.991,0.737,0.583,0.591,0.647,0.336,0.361,0.224,0.223,0.188,0.184
NCI-H460,0.174,0.289,0.185,0.0847,0.0625,0.528,0.576,0.527,0.512,0.56,0.715,0.728,0.614,0.557,0.131,0.524,0.623,0.22,0.186,0.126
NCI-H520,0.22,0.23,0.204,0.17,0.184,0.704,0.543,0.503,0.363,0.464,0.311,0.3,0.258,0.321,0.199,0.654,0.544,0.399,0.308,0.26
NCI-H647,0.269,0.489,0.236,0.123,0.117,0.513,0.504,0.47,0.605,0.441,0.654,0.623,0.618,0.715,0.334,0.852,0.704,0.549,0.211,0.174
NCI-H650,0.268,0.243,0.198,0.191,0.182,0.497,0.388,0.475,0.476,0.437,0.531,0.59,0.506,0.492,0.533,0.533,0.524,0.303,0.264,0.195
NCI-H661,0.489,0.468,0.417,0.348,0.361,0.294,0.296,0.281,0.267,0.31,0.776,0.685,0.679,0.611,0.499,0.929,0.945,0.918,0.619,0.523
NCI-H727,0.641,0.608,0.653,0.617,0.6,,,0.483,0.528,0.533,0.6,0.572,0.713,0.709,0.411,0.711,0.513,0.537,0.341,0.33
NCI-H838,0.259,0.275,0.194,0.211,0.199,0.588,0.513,0.49,0.452,0.603,0.39,0.414,0.413,0.339,0.16,0.389,0.314,0.228,0.248,0.2
NCI-H1355,0.374,0.345,0.329,0.275,0.277,0.441,0.456,0.427,0.442,0.408,0.41,0.423,0.393,0.463,0.303,0.642,0.495,0.413,0.29,0.281
NCI-H1437,0.343,0.321,0.247,0.265,0.28,0.317,0.285,0.332,0.363,0.369,0.905,0.933,0.871,0.847,0.717,0.692,0.748,0.632,0.297,0.216
NCI-H1650,0.262,0.353,0.248,0.255,0.293,0.436,0.581,0.351,0.362,0.341,0.653,0.634,0.639,0.774,0.141,0.838,0.603,0.331,0.326,0.241
NCI-H1651,0.522,0.508,0.515,0.389,0.403,0.321,0.327,0.277,0.321,0.311,0.825,0.701,0.655,0.665,0.382,0.788,0.836,0.755,0.586,0.635

Cell Line,relative viability (Decitabine + Palbociclib; first compound 0.04 µM),relative viability (Decitabine + Palbociclib; first compound 0.1265 µM),relative viability (Decitabine + Palbociclib; first compound 0.4 µM),relative viability (Decitabine + Palbociclib; first compound 1.265 µM),relative viability (Decitabine + Palbociclib; first compound 4 µM),relative viability (Cediranib + Phenformin; first compound 0.04 µM),relative viability (Cediranib + Phenformin; first compound 0.1265 µM),relative viability (Cediranib + Phenformin; first compound 0.4 µM),relative viability (Cediranib + Phenformin; first compound 1.265 µM),relative viability (Cediranib + Phenformin; first compound 4 µM),relative viability (Halofuginone + OSI-027; first compound 0.001 µM),relative viability (Halofuginone + OSI-027; first compound 0.003162 µM),relative viability (Halofuginone + OSI-027; first compound 0.01 µM),relative viability (Halofuginone + OSI-027; first compound 0.03162 µM),relative viability (Halofuginone + OSI-027; first compound 0.1 µM),relative viability (Decitabine + Crizotinib; first compound 0.04 µM),relative viability (Decitabine + Crizotinib; first compound 0.1265 µM),relative viability (Decitabine + Crizotinib; first compound 0.4 µM),relative viability (Decitabine + Crizotinib; first compound 1.265 µM),relative viability (Decitabine + Crizotinib; first compound 4 µM)
NCI-H1666,0.692,0.684,0.675,0.553,0.647,0.564,0.488,0.524,0.548,0.579,1.01,0.869,0.766,0.955,0.852,0.7,0.75,0.708,0.512,0.46
NCI-H1734,0.331,0.338,0.32,0.284,0.236,0.403,0.458,0.383,0.388,0.433,0.579,0.587,0.543,0.554,0.501,0.515,0.603,0.593,0.396,0.304
NCI-H1755,0.461,0.495,0.424,0.431,0.407,0.528,0.519,0.616,0.618,0.677,0.76,0.788,0.677,0.753,0.627,0.762,0.811,0.804,0.53,0.317
NCI-H1792,0.753,0.76,0.646,0.595,0.512,0.237,0.41,0.197,0.322,0.284,0.71,0.749,0.801,0.737,0.592,0.97,1.01,0.948,0.501,0.553
NCI-H1915,0.328,0.209,0.22,0.194,0.192,0.371,0.331,0.372,0.374,0.364,0.616,0.62,0.643,0.549,0.544,0.314,0.285,0.217,0.194,0.201
NCI-H1944,0.331,0.32,0.313,0.294,0.281,0.211,0.223,0.167,0.205,0.235,0.422,0.431,0.447,0.404,0.343,0.787,0.859,0.627,0.45,0.387
NCI-H1975,0.395,0.46,0.285,0.231,0.301,0.421,0.415,0.394,0.459,0.426,0.751,0.744,0.67,0.473,0.348,0.491,0.355,0.312,0.305,0.28
NCI-H1993,0.646,0.589,0.645,0.503,0.583,0.423,0.5,0.484,0.523,0.393,0.56,0.592,0.564,0.47,0.523,0.898,0.776,0.832,0.702,0.728
NCI-H2009,0.43,0.231,0.116,0.193,0.275,0.492,0.434,0.481,0.481,0.493,0.835,0.795,0.655,0.468,0.264,0.846,0.639,0.464,0.281,0.25
NCI-H2023,0.329,0.36,0.287,0.23,0.157,0.417,0.443,0.396,0.42,0.458,0.488,0.421,0.36,0.3,0.0722,0.471,0.455,0.285,0.217,0.133
NCI-H2085,0.465,0.403,0.408,0.335,0.395,0.655,0.844,0.632,0.753,0.814,0.886,0.832,0.755,0.721,0.523,0.578,0.432,0.519,0.399,0.388
NCI-H2087,0.204,0.265,0.204,0.202,0.221,0.382,0.45,0.402,0.452,0.546,0.439,0.593,0.528,0.484,0.424,0.515,0.568,0.563,0.347,0.292
NCI-H2126,0.367,0.354,0.313,0.36,0.372,0.515,0.526,0.53,0.516,0.538,0.727,0.604,0.695,0.612,0.549,0.827,0.837,0.666,0.555,0.52
NCI-H2170,0.314,0.341,0.334,0.256,0.227,0.373,0.284,0.403,0.406,0.419,0.699,0.714,0.738,0.651,0.659,0.942,0.875,0.79,0.463,0.395
NCI-H2228,0.385,0.463,0.215,0.204,0.169,0.278,0.272,0.278,0.285,0.319,0.741,0.647,0.465,0.371,0.198,0.524,0.394,0.367,0.199,0.286
NCI-H2347,0.462,0.417,0.411,0.423,0.437,0.34,0.236,0.383,0.386,0.41,0.577,0.336,0.454,0.425,0.344,0.691,0.511,0.549,0.474,0.469
